From ChEMBL document CHEMBL1201862, “PubChem BioAssay data set” (2004)
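1) Cells in 96-well plates. 2) Compound, 48 h, 5 concentrations. 3) Linear interpolation between surrounding doses. 4) Unreached endpoint = highest concentration. Here, GI50 denotes the concentration required for 50% inhibition of growth.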 The source made the active and inactive calls. Rule as the data show it: active = GI50 up to about 1.1 µM and inactive = higher.

What was measured:
Test in all cases: DTP human tumour cell line panel, 48 h
786-0 = tested on: 786-0
CCRF-CEM = tested on: CCRF-CEM
COLO 205 = tested on: COLO 205
HCT-116 = tested on: HCT-116
HT-29 = tested on: HT-29
IGROV-1 = tested on: IGROV-1
K562 = tested on: K562
KM12 = tested on: KM12
LOX IMVI = tested on: LOX IMVI
M14 = tested on: M14
MDA-MB-435 = tested on: MDA-MB-435
NCI-H23 = tested on: NCI-H23
NCI-H460 = tested on: NCI-H460
OVCAR-5 = tested on: OVCAR-5
SF-539 = tested on: SF-539
SK-MEL-5 = tested on: SK-MEL-5
SK-OV-3 = tested on: SK-OV-3
T47D = tested on: T47D
UACC-257 = tested on: UACC-257
UO-31 = tested on: UO-31

| SMILES | GI50 (786-0) | GI50 (CCRF-CEM) | GI50 (COLO 205) | GI50 (HCT-116) | GI50 (HT-29) | GI50 (IGROV-1) | GI50 (K562) | GI50 (KM12) | GI50 (LOX IMVI) | GI50 (M14) | GI50 (MDA-MB-435) | GI50 (NCI-H23) | GI50 (NCI-H460) | GI50 (OVCAR-5) | GI50 (SF-539) | GI50 (SK-MEL-5) | GI50 (SK-OV-3) | GI50 (T47D) | GI50 (UACC-257) | GI50 (UO-31) |
| --- | --- | --- | --- | --- | --- | --- | --- | --- | --- | --- | --- | --- | --- | --- | --- | --- | --- | --- | --- | --- |
| FC(F)(F)c1ccc(/N=C/C=C(/Nc2ccc(C(F)(F)F)cc2)c2ccc(Cl)cc2)cc1 | 15.5 µM (inactive) | 5.22 µM (inactive) | 10.5 µM (inactive) | 4.79 µM (inactive) | 5.04 µM (inactive) | 2.62 µM (inactive) | 18.4 µM (inactive) | 4.71 µM (inactive) | 1.64 µM (inactive) | 12.8 µM (inactive) | 6.82 µM (inactive) | 12.2 µM (inactive) | 4.38 µM (inactive) | 17.9 µM (inactive) | 14.2 µM (inactive) | 6.56 µM (inactive) | 16.4 µM (inactive) | 10.3 µM (inactive) | 16.4 µM (inactive) | 14.5 µM (inactive) |
| Nc1nn2c(=O)c3ccccc3nc2s1 | 42.5 µM (inactive) | 18.2 µM (inactive) | 35.4 µM (inactive) | 57.3 µM (inactive) | 41.2 µM (inactive) | 65.5 µM (inactive) | 28.4 µM (inactive) | > 100 µM (inactive) | 17.5 µM (inactive) | 28.6 µM (inactive) | > 100 µM (inactive) | 28.4 µM (inactive) | > 100 µM (inactive) | > 100 µM (inactive) | 43.9 µM (inactive) | 56 µM (inactive) | > 100 µM (inactive) | 87.3 µM (inactive) | > 100 µM (inactive) | 28.2 µM (inactive) |
| OCCCc1ccc2c(c1)[C@H](CO)[C@@H](c1ccc(O)cc1)O2 | > 100 µM (inactive) | 76 µM (inactive) | > 100 µM (inactive) | > 100 µM (inactive) | > 100 µM (inactive) | > 100 µM (inactive) | > 100 µM (inactive) | 82.4 µM (inactive) | > 100 µM (inactive) | > 100 µM (inactive) | 69.3 µM (inactive) | 35.8 µM (inactive) | > 100 µM (inactive) | > 100 µM (inactive) | > 100 µM (inactive) | 18.6 µM (inactive) | > 100 µM (inactive) | 39.2 µM (inactive) | 46 µM (inactive) | 68.2 µM (inactive) |
| Cc1cc(C)c(S(=O)(=O)N[C@@H](/C=C(\Br)CO)C(C)C)c(C)c1 | 30.5 µM (inactive) | 27.3 µM (inactive) | 15.8 µM (inactive) | 33.4 µM (inactive) | 31 µM (inactive) | 29.9 µM (inactive) | 18.5 µM (inactive) | 33.6 µM (inactive) | 18.7 µM (inactive) | 30.5 µM (inactive) | 17.3 µM (inactive) | 33 µM (inactive) | 27.7 µM (inactive) | 34.3 µM (inactive) | 31.8 µM (inactive) | 15.8 µM (inactive) | 50.5 µM (inactive) | 25.9 µM (inactive) | 21.5 µM (inactive) | 33 µM (inactive) |
| C[C@@H]1CC[C@H]2C(C)(C)[C@H]3C[C@@]12CC[C@@]3(C)O [CEDROL] | 34.3 µM (inactive) | > 100 µM (inactive) | > 100 µM (inactive) | > 100 µM (inactive) | 36 µM (inactive) | > 100 µM (inactive) | 92 µM (inactive) | 48.1 µM (inactive) | > 100 µM (inactive) | > 100 µM (inactive) | 92.5 µM (inactive) | > 100 µM (inactive) | 18.2 µM (inactive) | > 100 µM (inactive) | > 100 µM (inactive) | 42.7 µM (inactive) | > 100 µM (inactive) | > 100 µM (inactive) | > 100 µM (inactive) | > 100 µM (inactive) |
| S=P(N1CC1)(N1CC1)N1CC1 [THIOTEPA] | 39.8 µM (inactive) | 9.46 µM (inactive) | 141 µM (inactive) | 116 µM (inactive) | 159 µM (inactive) | 158 µM (inactive) | 143 µM (inactive) | 171 µM (inactive) | 39.6 µM (inactive) | 72.1 µM (inactive) | 158 µM (inactive) | 36.1 µM (inactive) | 5.33 µM (inactive) | 147 µM (inactive) | 37.7 µM (inactive) | 97.9 µM (inactive) | 101 µM (inactive) | 171 µM (inactive) | 134 µM (inactive) | 97.9 µM (inactive) |
| O=C(/C=C/c1ccco1)c1cccc(C(=O)/C=C/c2ccco2)n1 | 3.4 µM (inactive) | 0.71 µM (active) | 23.6 µM (inactive) | 2.78 µM (inactive) | 5.07 µM (inactive) | 6.82 µM (inactive) | 2.91 µM (inactive) | 3.98 µM (inactive) | 1.78 µM (inactive) | 27.2 µM (inactive) | 48.5 µM (inactive) | 11.7 µM (inactive) | 42.4 µM (inactive) | 26.1 µM (inactive) | 5.01 µM (inactive) | 48.6 µM (inactive) | 47.8 µM (inactive) | 6.17 µM (inactive) | 60.7 µM (inactive) | 6.43 µM (inactive) |
| O=C1Nc2ccccc2/C1=C/c1ccccc1 | 13.8 µM (inactive) | 17.8 µM (inactive) | 16.8 µM (inactive) | 14 µM (inactive) | 22.6 µM (inactive) | 11.7 µM (inactive) | 27.7 µM (inactive) | 15.3 µM (inactive) | 13.2 µM (inactive) | 16.7 µM (inactive) | 15.8 µM (inactive) | 18.1 µM (inactive) | 15.5 µM (inactive) | 18.5 µM (inactive) | 15.4 µM (inactive) | 13.3 µM (inactive) | 28.8 µM (inactive) | 12.3 µM (inactive) | 15 µM (inactive) | 12.6 µM (inactive) |
| N/C(S)=N/N=C/c1ccc(N)cn1 | 2.43 µM (inactive) | 1.93 µM (inactive) | 2.99 µM (inactive) | 3.98 µM (inactive) | 4.47 µM (inactive) | > 10 µM (inactive) | 3.1 µM (inactive) | 6.22 µM (inactive) | 3.62 µM (inactive) | 2.21 µM (inactive) | 5.9 µM (inactive) | 2.13 µM (inactive) | 3.09 µM (inactive) | 9.06 µM (inactive) | 0.404 µM (active) | 2.25 µM (inactive) | 9.84 µM (inactive) | 6.68 µM (inactive) | > 10 µM (inactive) | 2.28 µM (inactive) |
| COc1ccnc2c1C(=O)c1nc3ccccc3c3ccnc-2c13 | 0.221 µM (active) | 0.295 µM (active) | 0.0796 µM (active) | 0.0902 µM (active) | 0.0571 µM (active) | 0.177 µM (active) | 0.163 µM (active) | 0.101 µM (active) | 0.155 µM (active) | 0.0418 µM (active) | 0.396 µM (active) | 0.271 µM (active) | 0.0232 µM (active) | 0.52 µM (active) | 0.373 µM (active) | 0.0317 µM (active) | 0.167 µM (active) | 0.291 µM (active) | 0.198 µM (active) | 0.161 µM (active) |
| Clc1cccc(C2ON=C(c3ccccc3)N2C23CC4CC(CC(C4)C2)C3)c1Cl (stereo not given) | > 10 µM (inactive) | > 10 µM (inactive) | > 10 µM (inactive) | > 10 µM (inactive) | > 10 µM (inactive) | > 10 µM (inactive) | > 10 µM (inactive) | > 10 µM (inactive) | > 10 µM (inactive) | > 10 µM (inactive) | > 10 µM (inactive) | > 10 µM (inactive) | > 10 µM (inactive) | > 10 µM (inactive) | > 10 µM (inactive) | > 10 µM (inactive) | > 10 µM (inactive) | > 10 µM (inactive) | > 10 µM (inactive) | 5.02 µM (inactive) |
| CCOC(=O)/C=C/CCC(C)(C)COC(C)=O | > 10 µM (inactive) | > 10 µM (inactive) | > 10 µM (inactive) | > 10 µM (inactive) | > 10 µM (inactive) | > 10 µM (inactive) | > 10 µM (inactive) | > 10 µM (inactive) | > 10 µM (inactive) | > 10 µM (inactive) | > 10 µM (inactive) | > 10 µM (inactive) | > 10 µM (inactive) | > 10 µM (inactive) | > 10 µM (inactive) | > 10 µM (inactive) | > 10 µM (inactive) | > 10 µM (inactive) | > 10 µM (inactive) | > 10 µM (inactive) |
| COc1cc([C@H]2Oc3c(OC)cc(CCCO)cc3[C@@H]2CO)ccc1O [DIHYDRODEHYDRODICONIFERY ALCOHOL] | > 100 µM (inactive) | > 100 µM (inactive) | > 100 µM (inactive) | > 100 µM (inactive) | > 100 µM (inactive) | > 100 µM (inactive) | > 100 µM (inactive) | > 100 µM (inactive) | > 100 µM (inactive) | > 100 µM (inactive) | > 100 µM (inactive) | 54.5 µM (inactive) | > 100 µM (inactive) | > 100 µM (inactive) | > 100 µM (inactive) | 39 µM (inactive) | > 100 µM (inactive) | 30.3 µM (inactive) | 43.4 µM (inactive) | 57.8 µM (inactive) |
| Cc1ccc2[nH]c3c(c2c1)C1CCC(C(C)(C)C)CC1C1C(=O)N(c2ccc4c(c2)OCO4)C(=O)C31 (stereo not given) | 1.63 µM (inactive) | 1.82 µM (inactive) | 3.31 µM (inactive) | 2.34 µM (inactive) | 4.51 µM (inactive) | 2.45 µM (inactive) | 3.01 µM (inactive) | 5.25 µM (inactive) | 2.4 µM (inactive) | 4.7 µM (inactive) | 7.21 µM (inactive) | 6.55 µM (inactive) | 1.78 µM (inactive) | 3.61 µM (inactive) | 1.35 µM (inactive) | 8.15 µM (inactive) | 2.58 µM (inactive) | 2.06 µM (inactive) | 9.68 µM (inactive) | 2.55 µM (inactive) |
